The results in this text go back to US4965280A, “Antifungal carbinols” (E. I. Du Pont de Nemours and Company, priority 1989, dated 1990).

In one test the test system is Puccinia recondita. Briefly: Example G wheat leaf rust. It is filed as in vivo. To be noted: read-out: disease control rating, Ex. G.
The subject of test [1] is Erysiphe graminis f. sp. tritici. Briefly: Example D wheat powdery mildew. It is filed as in vivo. The settings on record: Blumeria graminis, 144 h, read-out: disease control rating, Ex. D. Put shortly:
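Compounds were dissolved in acetone (6% of final volume), then suspended at 100 or 20 ppm in purified water containing 250 ppm TREM 014 surfactant. Wheat seedlings were sprayed with this suspension to run-off.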

Test [2] deals with Rhizoctonia solani. The test can be described thus: Example K cotton blight. It is filed as in vivo. The settings on record: 336 h, 5 kg/ha, read-out: disease control rating, Ex. K. As to the method: […] Seeds and soil were then inoculated with a mixture of sand, cereal and mycelium of the fungus Rhizoctonia solani, causal agent of cotton blight, and incubated in a growth chamber at 30° C. for 14 days. Disease ratings were then made.

In test [3] the test system is Rhizoctonia solani. Briefly: Example F rice sheath blight. It is filed as in vivo. To be noted: Rhizoctonia solani, 144 h, read-out: disease control rating, Ex. F. Summed up:
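Compounds, dissolved in acetone at 6% of final volume, were suspended at 100 or 20 ppm in purified water with 250 ppm polyhydric alcohol ester surfactant (TREM 014). Rice seedlings were sprayed with this suspension to run-off.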

In test [4] the test system is Aspergillus fumigatus ATCC 28214. Briefly: In vitro antifungal MIC, microtiter broth dilution. To be noted: Aspergillus fumigatus, ATCC28214, 24 h, read-out: MIC values, A. fumigatus, 30°, 24 hours.
The next test deals with Venturia inaequalis. Briefly: Example A apple scab. It is filed as in vivo. To be noted: read-out: disease control rating, Ex. A. Put shortly:
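Test compounds were dissolved in acetone (6% of final volume) and suspended at 100 or 20 ppm in purified water containing 250 ppm of the surfactant TREM 014 (polyhydric alcohol esters). Apple seedlings were sprayed with this suspension to the point of run-off.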

The test system of a further test is Sclerotium rolfsii. The test can be described thus: Example M southern blight. It is filed as in vivo. The settings on record: Agroathelia rolfsii, 336 h; 5 kg/ha; read-out: disease control rating, Ex. M. How it is done:
[…] Seeds and soil were then inoculated with a mixture of sand, cereal and mycelium of the fungus Sclerotium rolfsii, causal agent of sourthern blight, and incubated in a growth chamber at 30° C. for 14 days. Disease ratings were then made.

Test [5] relates to Candida albicans ATCC 11651. The test can be described thus: In vitro antifungal MIC, microtiter broth dilution. To be noted: Candida albicans, ATCC11651, 24 h, read-out: MIC values, C. albicans, 30°, 24 hours. In general terms: Broth dilution looks for growth in wells or tubes with falling amounts of substance.
The subject of test [6] is Candida albicans ATCC 11651. The test can be described thus: In vivo systemic Candida infection in mice, primary assay. Also noted: species or system Candida albicans; CF-1 female mice. To be noted: Candida albicans, 150 mg/kg per day, read-out: % Survival. Put shortly:
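CF-1 female mice (20 g, 10 per group) were infected IV with 0.2 ml of 1×10^7/ml C. albicans ATCC 11651, then given test compound subcutaneously at 50 or 150 mg/kg/day at 1 and 6 h post-infection and once daily for three more days. Survival was followed for 21 days against infected untreated mice; ≥70% protection at 14 days was scored active.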

The subject of a further test is Plasmorpara viticola. The test can be described thus: Example I grape downy mildew. It is filed as in vivo. To be noted: read-out: disease control rating, Ex. I. Put shortly:
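Applied as a foliar spray to run-off on grape seedlings, the compounds were formulated at 100 or 20 ppm in water containing 250 ppm TREM 014, with acetone making up 6% of the volume.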

Test [7] relates to Cercosporidium personatum. Briefly: Example B Peanut Late Leafspot. To be noted: Nothopassalora personata, read-out: disease control rating, Ex. B. It is filed as in vivo. Put shortly: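 Compounds were dissolved in acetone (6% of final volume) and suspended at 100 or 20 ppm in purified water containing 250 ppm TREM 014 surfactant (polyhydric alcohol esters). The suspension was sprayed to run-off on peanut seedlings.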

The test system of another test is Pythium aphanadermatum. The test can be described thus: Example J cucumber damping off. It is filed as in vivo. Also noted: key to phytotoxicity entry, Ex. J: P: disease control was not measured due to phytoxicity. The settings on record: 5 kg/ha; for pest or weed control at 5000 g/ha: Pythium, 336 h, read-out: disease control rating, Ex. J. How it is done:
[…] Seeds and soil were then inoculated with a mixture of sand, cereal and mycelium of the fungus Pythium aphanadermatum, causal agent of cucumber damping off, and incubated in a growth chamber at 30° C. for 14 days. Disease ratings were then made.

The next test concerns Phytophthora infestans. The test can be described thus: whole plant or invertebrate. It is filed as in vivo. The settings on record: Phytophthora infestans, in Solanum lycopersicum, read-out: disease control rating, Ex. H, 100 PPM.
Another test has as its system Pyricularia oryzae. Briefly: whole plant or invertebrate. It is filed as in vivo. The settings on record: Pyricularia oryzae, 120 h; for pest or weed control at 100 ppm: read-out: disease control rating, Ex. E, 100 PPM.
The next test concerns Botrytis cinerea. Briefly: Example C bean grey mold. It is filed as in vivo. To be noted: Botrytis cinerea, 24 h, read-out: disease control rating, Ex. C. Put shortly: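 Test compounds were taken up in acetone (6% of final volume) and suspended at 100 or 20 ppm in purified water containing 250 ppm TREM 014 surfactant (polyhydric alcohol esters). Broad bean seedlings were sprayed with this suspension until run-off.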

Test [8] has as its system Fusarium oxysporum f. sp. cucumerinum. The test can be described thus: Example L cucumber wilt. To be noted: 336 h, 5 kg/ha, read-out: disease control rating, Ex. L. It is filed as in vivo. How it is done: […] Seeds and soil were then inoculated with a mixture of sand, cereal and mycelium of the fungus Fusarium oxysporum f. sp. cucumerinum, causal agent of cucumber wilt, and incubated in a growth chamber at 30° C. for 14 days. Disease ratings were then made.

Values after ≈ are worked out from the molar mass of the structure shown. Read-outs that look alike come from different tables or passages of the source.

As a reminder, the MIC is the lowest concentration that inhibits growth of the organism. Take `C=C(c1cccc(F)c1)C(O)(Cn1cncn1)c1ccc(Cl)cc1` (centres unmarked) [Example 17]: the pest or weed control at 20 ppm was determined as 100% with Puccinia recondita (20 PPM); 95% in test [1] (20 PPM); 0% in the test on Rhizoctonia solani [3] (20 PPM); 80% with Venturia inaequalis (20 PPM); 100% in test [7] (20 PPM); 0% with Pyricularia oryzae (read-out: disease control rating, Ex. E, 20 PPM). The pest or weed control at 20 ppm with Botrytis cinerea (20 PPM) stood at 57%. Further, the pest or weed control at 5000 g/ha in the test with Rhizoctonia solani [2], with Sclerotium rolfsii and in the test on Pythium aphanadermatum was 0% each time. For the same compound, the pest or weed control at 100 ppm amounted to 81% in the test with Rhizoctonia solani [3]; 42% with Plasmorpara viticola; 0% in the test with Phytophthora infestans; 0% in the test on Pyricularia oryzae; 89% with Botrytis cinerea. Further, the MIC is 12.5 µg/mL (≈ 36.4 µM) in [4] and 0.03 µg/mL (≈ 0.0873 µM) in test [5]. The responders at 150 mg/kg in test [6] (ATCC11651, 168 h, day 7) was determined as 100%; in test [6] (ATCC11651, 336 h, day 14), 90%; in test [6] (ATCC11651, 504 h, day 21) it was 70%.

With `C=C(c1ccc(Cl)cc1Cl)C(O)(Cn1cncn1)c1ccc(Cl)cc1Cl` (centres unmarked) [Example 100], the pest or weed control at 100 ppm in the test with Puccinia recondita came out at 100%; in test [1] it was 83%; in the test with Rhizoctonia solani [3], 80%; in the test on Venturia inaequalis, 100%; in the test on Plasmorpara viticola it was 83%; in test [7], 100%. The pest or weed control at 100 ppm in the test on Phytophthora infestans was determined as 0%; with Pyricularia oryzae, 95%; with Botrytis cinerea it was 96%. Moreover, the pest or weed control at 5000 g/ha in the test with Rhizoctonia solani [2] and in the test with Sclerotium rolfsii was 0% throughout. Besides, the MIC in [4] was found to be 3.2 µg/mL (≈ 7.46 µM); in [5] it was 0.03 µg/mL (≈ 0.0699 µM). The responders at 150 mg/kg in test [6] (ATCC11651, 168 h, day 7) was found to be 100%; in [6] (ATCC11651, 336 h, day 14), 50%; in [6] (ATCC11651, 504 h, day 21), 30%. Further, the “phytotoxicity entry, Ex. J” value with Pythium aphanadermatum is reported as “P”.

Regarding `C=C(c1ccc(Cl)cc1Cl)C(O)(Cn1cncn1)c1ccc(Cl)cc1` (centres unmarked) [Example 101], the pest or weed control at 100 ppm in the test on Puccinia recondita stood at 100%; in [1] it was 83%; in the test with Rhizoctonia solani [3] it was 80%; in the test on Venturia inaequalis it was 100%; in the test with Plasmorpara viticola, 100%; in test [7], 100%. The results for the pest or weed control at 100 ppm with Phytophthora infestans, in the test with Pyricularia oryzae and in the test with Botrytis cinerea were 0%, 0% and 94%, respectively. Besides, the pest or weed control at 5000 g/ha in the test on Rhizoctonia solani [2], in the test on Sclerotium rolfsii and with Pythium aphanadermatum was 0% each time. Further, the values for the MIC in test [4] and in test [5] were 12.5 µg/mL (≈ 31.7 µM) and 0.03 µg/mL (≈ 0.076 µM), respectively. In addition, the responders at 150 mg/kg in test [6] (ATCC11651, 168 h, day 7) was determined as 100%; in test [6] (ATCC11651, 336 h, day 14), 90%; in test [6] (ATCC11651, 504 h, day 21), 60%.

For `C=C(c1ccccc1Cl)C(O)(Cn1cncn1)c1ccccc1F` (centres unmarked) [Example 620], the pest or weed control at 100 ppm with Puccinia recondita came to 100%; in test [1] it was 98%; with Rhizoctonia solani [3] it was 100%; with Venturia inaequalis, 100%; with Plasmorpara viticola, 0%; in [7], 100%. For the same compound, the figures for the pest or weed control at 100 ppm in the test on Phytophthora infestans, in the test with Pyricularia oryzae and in the test with Botrytis cinerea were 0%, 51% and 96%, respectively. Further, the pest or weed control at 5000 g/ha in the test on Rhizoctonia solani [2], in the test on Sclerotium rolfsii and in the test with Pythium aphanadermatum was 0% in each case. The minimum inhibitory concentration (MIC) in test [4] was 0.05 µg/mL (≈ 0.145 µM); in test [5], 0.03 µg/mL (≈ 0.0873 µM). The responders at 150 mg/kg in [6] (ATCC11651, 168 h, day 7) is 100%; in test [6] (ATCC11651, 336 h, day 14), 100%; in test [6] (ATCC11651, 504 h, day 21) it was 90%.

Regarding `C=C(c1ccccc1Cl)C(O)(Cn1cncn1)c1ccccc1Cl` (centres unmarked) [Example 622], the pest or weed control at 100 ppm in the test on Puccinia recondita is 100%; in test [1], 99%; in the test on Rhizoctonia solani [3], 100%; with Venturia inaequalis, 100%; with Plasmorpara viticola it was 26%; in [7], 100%. For the same compound, the pest or weed control at 100 ppm in the test on Phytophthora infestans came out at 0%; in the test on Pyricularia oryzae, 0%; with Botrytis cinerea it was 84%. The pest or weed control at 5000 g/ha with Rhizoctonia solani [2], in the test with Sclerotium rolfsii and with Pythium aphanadermatum was 0% each time. In addition, the MIC in test [4] worked out at 0.1 µg/mL (≈ 0.278 µM); in [5], 0.03 µg/mL (≈ 0.0833 µM). The responders at 150 mg/kg in [6] (ATCC11651, 168 h, day 7) stood at 100%; in [6] (ATCC11651, 336 h, day 14) it was 100%; in [6] (ATCC11651, 504 h, day 21), 100%.

`C=C(c1ccc(F)cc1)C(O)(Cn1ncnc1I)c1ccccc1F` (centres unmarked) [Example 1377]: the pest or weed control at 100 ppm amounted to 100% in the test with Puccinia recondita; 92% in test [1]; 100% with Rhizoctonia solani [3]; 100% with Venturia inaequalis; 44% in the test on Plasmorpara viticola; 100% in test [7]. In addition, the pest or weed control at 100 ppm with Phytophthora infestans is 0%; with Pyricularia oryzae, 58%; in the test with Botrytis cinerea, 96%. The pest or weed control at 5000 g/ha (in [8]; with Pythium aphanadermatum) was 0% in each case. In addition, the MIC in [4] was 100 µg/mL (≈ 221 µM); in test [5] it was 1.6 µg/mL (≈ 3.53 µM).

As to `OC(Cn1cncn1)(c1ccc(F)cc1)C1(c2ccccc2)CO1` (centres unmarked) [Example 1527], the pest or weed control at 100 ppm with Puccinia recondita came to 100%; in test [1], 100%; in the test with Rhizoctonia solani [3] it was 35%; with Venturia inaequalis, 0%; with Plasmorpara viticola, 0%; in test [7] it was 100%. Moreover, the results for the pest or weed control at 100 ppm with Phytophthora infestans and in the test on Botrytis cinerea were 0% and 93%, respectively. In addition, the pest or weed control at 5000 g/ha (in test [8]; with Pythium aphanadermatum) was 0% each time. For the same compound, the MIC amounted to 6.3 µg/mL (≈ 19.4 µM) in test [4] and 0.4 µg/mL (≈ 1.23 µM) in [5]. The responders at 150 mg/kg in test [6] (ATCC11651, 168 h, day 7) is 100%; in test [6] (ATCC11651, 336 h, day 14), 70%; in test [6] (ATCC11651, 504 h, day 21), 20%.
